Holding throughout (format): cell-based
One data set has as its system Aeromonas salmonicida. To be noted: 16 h. How it is done: (§1) The antibacterial activity of peptides β-Pte20, β-Pte17, β-Pte13 and β-Pte10 from pteroicidin B and γ-Pte20, γ-Pte17, γ-Pte13 and γ-Pte10 from pteroicidin C was evaluated on several bacteria as presented in Table 3. All peptides were solubilized in sterilized water. The minimum inhibitory concentrations (MICs) were determined according to the liquid growth inhibition test following the protocol established by Hetru and Bulet and used for the study of α-pteroicidins. Briefly, 10 μL of peptide solution were added to 100 μL of bacterial suspension at a starting OD600 of 0.001 (~10^5 to 10^6 CFU/mL according to strain) and incubated in 96-well microplates. Bacterial growth was assessed by optical density measurement at 595 nm after 16 h of incubation. All the tests were performed three times, and each peptide concentration between 0.1 and 50 µM was tested in triplicate. MICs were expressed in µM as an [a]–[b] concentration interval where [a] was the last concentration with bacterial growth and [b] was the first concentration with 100% bacterial growth inhibition. MBCs (minimal bactericidal concentrations) were expressed in µM as an [a]–[b] concentration interval where [a] was the last concentration with bacterial growth and [b] was the first concentration that killed 100% of the bacteria, determined after the plating on agar plates.

The test system of the next data set is Staphylococcus aureus. As to conditions: 16 h. On the procedure:
as §1

For the next data set, the system named is Vibrio splendidus. To be noted: 16 h. On the procedure: as §1
For another data set, the system named is Vibrio vulnificus. To be noted: 16 h. How it is done:
as §1

For another data set, the system named is Vibrio aestuarianus. To be noted: 16 h. How it is done: as §1
For a further data set, the system named is Salmonella typhimurium. To be noted: 16 h; for MIC: murium. On the procedure: as §1
A further data set concerns Listeria monocytogenes. To be noted: 16 h. On the procedure: as §1
For another data set, the system named is Escherichia coli. To be noted: 16 h. How it is done: as §1
The subject of a further data set is Enterococcus faecalis. As to conditions: 16 h. On the procedure: as §1
The next data set has as its system human red blood cells. As to conditions: 200 µM. On the procedure: The hemolytic activity of peptides β-Pte20, β-Pte17, β-Pte13 and β-Pte10 from pteroicidin B and γ-Pte20, γ-Pte17, γ-Pte13 and γ-Pte10 from pteroicidin C was evaluated on human red blood cells (RBCs) following the protocol previously described in [96] and used for α-Pte in a previous study. RBCs were obtained from nine blood samples from French blood donors thanks to the support of the Etablissement Français du Sang (EFS). RBCs were rinsed twice in PBS and then diluted to obtain a 1% erythrocyte solution (~5 × 10^6 cells determined using a Scepter™ 2.0 cell counter). Ninety μL of erythrocyte solution were incubated with 90 μL of peptide solution at concentrations ranging from 5 to 200 μM, for one hour at 37 °C without shaking. The percentage of hemolysis was determined by optical density measurement at 415 nm. The experiment was performed in triplicate. The 0% hemolysis and 100% hemolysis controls were determined in PBS and 1% Triton X-100, respectively.

This note sets out measurements from article PMC8468504, “Marine Transcriptomics Analysis for the Identification of New Antimicrobial Peptides” (Marine Drugs, 2021).

Ends that are not written are not given here.

Turning to FFKRLKNAFKSARQAWR [β-Pte17], the MBC against Aeromonas salmonicida is 5 to 10 µM; in the data set on Staphylococcus aureus it was 25 to 50 µM; in the data set on Vibrio splendidus it was 10 to 25 µM; with Vibrio vulnificus it was 10 to 25 µM; in the data set with Vibrio aestuarianus, 10 to 25 µM; against Salmonella typhimurium, 10 to 25 µM. For the same sequence, the MBC in the data set on Listeria monocytogenes was in the range of 25 to 50 µM; with Escherichia coli it was 1 to 5 µM. For the same sequence, the MIC against Aeromonas salmonicida lay within 5 to 10 µM; with Staphylococcus aureus, 10 to 25 µM; in the data set with Vibrio splendidus, 10 to 25 µM; in the data set on Vibrio vulnificus, 10 to 25 µM; in the data set with Vibrio aestuarianus, 10 to 25 µM; against Salmonella typhimurium it was 10 to 25 µM. The minimal inhibitory concentration (MIC) in the data set with Listeria monocytogenes lay in the range of 5 to 10 µM; against Escherichia coli, 1 to 5 µM.
For FFKRLKNAFKSARQAWRDYK [β-Pte20], the MBC is 1 to 5 µM in the data set with Aeromonas salmonicida; 10 to 25 µM against Staphylococcus aureus; 5 to 10 µM in the data set on Vibrio splendidus; 5 to 10 µM against Vibrio vulnificus; 5 to 10 µM against Vibrio aestuarianus; 10 to 25 µM against Salmonella typhimurium. The minimal bactericidal concentration (MBC) with Listeria monocytogenes and in the data set on Escherichia coli was 5 to 10 µM throughout. The minimal inhibitory concentration (MIC) against Aeromonas salmonicida is 1 to 5 µM; against Staphylococcus aureus it was 1 to 5 µM; in the data set on Vibrio splendidus it was 1 to 5 µM; in the data set with Vibrio vulnificus, 5 to 10 µM; against Vibrio aestuarianus it was 1 to 5 µM; in the data set on Salmonella typhimurium, 10 to 25 µM. In addition, the minimum inhibitory concentration (MIC) against Listeria monocytogenes and against Escherichia coli was 1 to 5 µM each time.
FFRHLKSLWK [γ-Pte10]: the MIC against Aeromonas salmonicida and with Escherichia coli was 25 to 50 µM each time. In the data set with Escherichia coli, this sequence showed an MBC of 25 to 50 µM.
For the sequence FFRHLKSLWKGAK [γ-Pte13], the MIC in the data set with Aeromonas salmonicida was in the range of 25 to 50 µM. In the data set with Escherichia coli, this sequence yielded a minimum bactericidal concentration (MBC) of 10 to 25 µM and a minimal inhibitory concentration (MIC) of 10 to 25 µM.
Turning to FFRHLKSLWKGAKAAFR [γ-Pte17], the MBC against Aeromonas salmonicida is 1 to 5 µM; against Staphylococcus aureus it was 1 to 5 µM; in the data set with Vibrio splendidus, 10 to 25 µM; against Vibrio vulnificus, 10 to 25 µM; against Vibrio aestuarianus, 5 to 10 µM; against Salmonella typhimurium it was 5 to 10 µM. Besides, the minimum bactericidal concentration (MBC) in the data set on Listeria monocytogenes is 5 to 10 µM; in the data set with Escherichia coli it was 10 to 25 µM. The minimal inhibitory concentration (MIC) in the data set on Aeromonas salmonicida fell in the range of 1 to 5 µM; with Staphylococcus aureus, 1 to 5 µM; in the data set with Vibrio splendidus it was 10 to 25 µM; against Enterococcus faecalis, 1 to 5 µM; against Vibrio vulnificus it was 10 to 25 µM; against Vibrio aestuarianus it was 5 to 10 µM. Moreover, the values for the MIC against Salmonella typhimurium, against Listeria monocytogenes and against Escherichia coli were 5 to 10 µM, 1 to 5 µM and 1 to 5 µM, respectively. The hemolysis in the data set on human red blood cells is given as 43%.
For FFRHLKSLWKGAKAAFRGAR [γ-Pte20], the MBC was in the range of 1 to 5 µM against Aeromonas salmonicida; 1 to 5 µM in the data set with Staphylococcus aureus; 5 to 10 µM in the data set with Vibrio splendidus; 10 to 25 µM in the data set with Vibrio vulnificus; 10 to 25 µM against Vibrio aestuarianus; 5 to 10 µM in the data set on Salmonella typhimurium. The results for the MBC in the data set with Listeria monocytogenes and in the data set on Escherichia coli were 5 to 10 µM and 1 to 5 µM, respectively. In addition, the minimum inhibitory concentration (MIC) in the data set on Aeromonas salmonicida lay within 1 to 5 µM; in the data set on Staphylococcus aureus it was 1 to 5 µM; against Vibrio splendidus it was 5 to 10 µM; in the data set on Enterococcus faecalis it was 1 to 5 µM; with Vibrio vulnificus, 10 to 25 µM; in the data set with Vibrio aestuarianus, 5 to 10 µM. The MIC with Salmonella typhimurium was 5 to 10 µM; in the data set on Listeria monocytogenes, 1 to 5 µM; in the data set with Escherichia coli, 1 to 5 µM. In the data set with human red blood cells, the hemolysis was found to be 19%.
